According to patent US12643871B2, “Aryl formamide compound containing chiral sulfur oxide or salt thereof, preparation method, herbicidal composition and use thereof” (Qingdao Kingagroot Chemical Compound Co., Ltd., priority 2019, dated 2026):

Experiments:
Rice = test: Transplanted rice safety evaluation; assay type: in vivo, rice (japonica rice/Indica rice); details: 60 g/ha; transplanted 3 leaf stage rice, 21 days after treatment
Source text: (§1) The activity level criteria for harmful plant damage (i.e., growth control rate) are as follows: • Level 5: growth control rate is above 85%; • Level 4: growth control rate is greater than or equal to 60% and less than 85%; • Level 3: growth control rate is greater than or equal to 40% and less than 60%; • Level 2: growth control rate is greater than or equal to 20% and less than 40%; • Level 1: growth control rate is greater than or equal to 5% and less than 20%; • Level 0: growth control rate is less than 5%.
In addition, the rice field soil that loaded into the 1/1,000,000 ha pot was leveled to keep water storage at 3-4 cm depth. The 3 leaf stage rice (japonica rice/Indica rice) was transplanted at 3 cm of transplanting depth the next day. The compound of the present invention was treated by the same way after 5 days of transplantation.
(§2) The fertility condition of Echinochloa crusgali, Scirpus juncoides, Bidens tripartita, Leptochloa chinensis, Sagittaria trifolia and Monochoria vaginalis 14 days after the treatment of the compound of the invention and the fertility condition of rice 21 days after the treatment of the compound of the invention respectively with the naked eye. Evaluate the weed control effect with 0-5 activity standard level. Many compounds show excellent activity and selectivity.

Sagittaria trifolia = test: Weed control effect evaluation in rice field; assay type: in vivo; details: rice field pot, 14 days after treatment, ALS-inhibitor resistant weed from Heilongjiang
Source text: as §1
(§3) Rice field soil was loaded into a 1/1,000,000 ha pot. The seeds of Echinochloa crusgali, Scirpus juncoides, Bidens tripartita, Sagittaria trifolia, Monochoria vaginalis and Leptochloa chinensis were sowed and gently covered with soil, then left to stand still in greenhouse in the state of 0.5-1 cm of water storage. The tuber of Sagittaria trifolia was planted in the next day or 2 days later. It was kept at 3-4 cm of water storage thereafter. The weeds were treated by dripping the WP or SC water diluents prepared according to the common preparation method of the compounds of the present invention with pipette homogeneously to achieve specified effective amount when Echinochloa crusgali, Scirpus juncoides, Bidens tripartita, Monochoria vaginalis and Leptochloa chinensis reached 0.5 leaf stage and Sagittaria trifolia reached the time point of primary leaf stage.
as §2

Echinochloa crusgali [1] = test: Weed control effect evaluation in rice field; assay type: in vivo; details: rice field pot, 14 days after treatment, ALS-inhibitor resistant weed from Heilongjiang
Source text: as §1, §3, §2

Monochoria vaginalis = test: Weed control effect evaluation in rice field; assay type: in vivo; details: rice field pot, 14 days after treatment, ALS-inhibitor resistant weed from Heilongjiang
Source text: as §1, §3, §2

Leptochloa chinensis = test: Weed control effect evaluation in rice field; assay type: in vivo; details: rice field pot, 14 days after treatment
Source text: as §1, §3, §2

Echinochloa crusgali [2] = test: Weeding effect in post-emergence stage; assay type: in vivo; details: 250 g/ha; 2 leaf stage; 15 days after application; fresh weight control rate
In short: (§4)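 Reported levels reflect fresh weight growth control rate banded 0 (<5%) through 5 (>85%), averaged over three repetitions. Treatment: foliar spray of 2-leaf-stage greenhouse plants at 15 to 500 g/ha, with 1.5 liter/ha methyl oleate synergist; assessment 15 days after application.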

Digitaria sanguinalis [3] = test: Weeding effect in post-emergence stage; assay type: in vivo; details: 250 g/ha; 2 leaf stage; 15 days after application; fresh weight control rate
In short: as §4

Setaria viridis = test: Weeding effect in post-emergence stage; assay type: in vivo; details: 250 g/ha; 2 leaf stage; 15 days after application; fresh weight control rate
In short: as §4

Amaranthus retroflexus = test: Weeding effect in post-emergence stage; assay type: in vivo; details: 250 g/ha; 2 leaf stage; 15 days after application; fresh weight control rate
In short: as §4

Abutilon theophrasti = test: Weeding effect in post-emergence stage; assay type: in vivo; details: 250 g/ha; 2 leaf stage; 15 days after application; fresh weight control rate
In short: as §4

Digitaria sanguinalis [4] = test: Comparison experiment (post-emergence) against racemate / S configuration; assay type: in vivo; details: Table 6, post-seedling test conditions
Source text: (§5) The above growth control rates are fresh weight control rates.
(§6) Experiment on weeding effect in post-emergence stage: monocotyledonous and dicotyledonous weed seeds (Descurainia sophia, Capsella bursa-pastoris, Galium aparine, Stellaria media, Lithospermum arvense, Rorippa indica, Alopecurus aequalis, Beckmannia syzigachne, Sclerochloa dura, Phleum paniculatum, Bromus japonicus, Aegilops tauschii, Phalaris arundinacea, Amaranthus retroflexus, Chenopodiaceae, Commelina communis, Sonchus arvensis, convolvulus arvensis, Cirsium setosum, Solanum nigrum, Acalypha australis, Digitaria sanguinalis, Echinochloa crusgalli, Setaria viridis, Setaria glauca, Leptochloa chinensis, Monochoria vaginalis, Sagittaria trifolia, Scirpus juncoides, Cyperus rotundus, Cyperus iria, Cyperus difformis, Fimbristylis, Portulaca oleracea, Xanthium sibiricum, Pharbitis nil) and major crop seeds (wheat, corn, rice, soybean, cotton, oilseed rape, millet, sorghum, potato, sesame, ricinus) were placed in plastic pots filled with soil, then covered with 0.5-2 cm of soil, allowed to grow in a good greenhouse environment. After 2 weeks of sowing, the test plants were treated in the 2 leaf stage. The tested compounds of the present invention were respectively dissolved in acetone, then added with Tween 80 and 1.5 liter/ha of emulsifiable concentrate of methyl oleate as synergist, diluted with a certain amount of water to obtain a solution with a certain concentration, and sprayed with a spray tower onto the plants. After the application, the plants were cultured for 15 days in the greenhouse, and then the experimental results of the weeding were counted. The doses of the used compounds were 500, 250, 125, 60, 30, 15 g/ha, and the averages were obtained by repeating for three times.
(§7) If there is no clear marker, the post-seedling test conditions are the same as above, and the experimental results are shown in Tables 4-7.

Alopecurus japonicas = test: as above; assay type: in vivo; details: Table 6, post-seedling test conditions
Source text: as §5, §6, §7

Green Setaria viridis = test: as above; assay type: in vivo; details: 30 g/ha; Table 6, post-seedling test conditions
Source text: as §5
as §6, with “After 2 weeks of sowing, the test plants were treated in the 2 leaf stage.” left out, “After the application, the plants were cultured for 15 days in the greenhouse, and then the experimental results of the weeding were counted. The doses of the used compounds were 500, 250, 125, 60, 30, 15 g/ha, and the averages were obtained by repeating for three times.” left out
as §7

SMILES	Herbicidal effects of compounds, Rice, 0-5 activity standard level (Rice)	Herbicidal effects of compounds, Sagittaria trifolia, 0-5 activity standard level (Sagittaria trifolia; 60 g/ha)	Herbicidal effects of compounds, Echinochloa crusgali, 0-5 activity standard level (Echinochloa crusgali [1]; 60 g/ha)	Herbicidal effects of compounds, Monochoria vaginalis, 0-5 activity standard level (Monochoria vaginalis; 60 g/ha)	Herbicidal effects of compounds, Leptochloa chinensis, 0-5 activity standard level (Leptochloa chinensis; 60 g/ha)	weeding effect in post-emergence stage, activity level (growth control rate), Echinochloa crusgali (Echinochloa crusgali [2])	weeding effect in post-emergence stage, activity level (growth control rate), Digitaria sanguinalis (Digitaria sanguinalis [3])	weeding effect in post-emergence stage, activity level (growth control rate), Setaria viridis (Setaria viridis)	weeding effect in post-emergence stage, activity level (growth control rate), Amaranthus retroflexus (Amaranthus retroflexus)	weeding effect in post-emergence stage, activity level (growth control rate), Abutilon theophrasti (Abutilon theophrasti)	Results of comparison experiment, Alopecurus japonicas (120 g/ha) (Alopecurus japonicas)	Results of comparison experiment, Green Setaria viridis (30 g/ha) (Green Setaria viridis)	further results
Cc1nnc(NC(=O)c2ccc(C(F)(F)F)c([S@+]([O-])CC(C)C)c2F)o1 [Compound 6]	0 (Level 0: growth control rate is less than 5%)	5 (Level 5: growth control rate is above 85%)	5 (Level 5: growth control rate is above 85%)	5 (Level 5: growth control rate is above 85%)	5 (Level 5: growth control rate is above 85%)	5 (Level 5: growth control rate is above 85%)	5 (Level 5: growth control rate is above 85%)	5 (Level 5: growth control rate is above 85%)	5 (Level 5: growth control rate is above 85%)	5 (Level 5: growth control rate is above 85%)			
CCS(=O)(=O)c1c(C(F)(F)F)ccc(C(=O)Nc2nnc(C)o2)c1SC [Control Compound C′]											20%	80%	pest or weed control at 30 g/ha (Digitaria sanguinalis [4]; Digitaria sanguinalis, post-emergence): 10%
Cc1nnc(NC(=O)c2ccc(C(F)(F)F)c([S@+]([O-])C3COC3)c2F)o1 [Compound 79]	0 (Level 0: growth control rate is less than 5%)	5 (Level 5: growth control rate is above 85%)	5 (Level 5: growth control rate is above 85%)	5 (Level 5: growth control rate is above 85%)	5 (Level 5: growth control rate is above 85%)	5 (Level 5: growth control rate is above 85%)	5 (Level 5: growth control rate is above 85%)	5 (Level 5: growth control rate is above 85%)	5 (Level 5: growth control rate is above 85%)	5 (Level 5: growth control rate is above 85%)			
COc1cnc(OC)n2nc(NS(=O)(=O)c3c(OCC(F)F)cccc3C(F)(F)F)nc12 [Penoxsulam, reference compound]													Herbicidal effects of compounds, Sagittaria trifolia, 0-5 activity standard level (Sagittaria trifolia; 30 g/ha): 0 (Level 0: growth control rate is less than 5%); Herbicidal effects of compounds, Echinochloa crusgali, 0-5 activity standard level (Echinochloa crusgali [1]; 30 g/ha): 0 (Level 0: growth control rate is less than 5%); Herbicidal effects of compounds, Monochoria vaginalis, 0-5 activity standard level (Monochoria vaginalis; 30 g/ha): 1 (Level 1: growth control rate is greater than or equal to 5% and less than 20%); Herbicidal effects of compounds, Leptochloa chinensis, 0-5 activity standard level (Leptochloa chinensis; 30 g/ha): 1 (Level 1: growth control rate is greater than or equal to 5% and less than 20%)
CSc1c(C(=O)Nc2nnc(C)o2)ccc(C(F)(F)F)c1[S+](C)[O-] (stereo not shown) [Control Compound E′]											15%	40%	Results of comparison experiment, Digitaria sanguinalis (30 g/ha) (Digitaria sanguinalis [4]): 40%
CSc1c(C(=O)Nc2nnc(C)o2)ccc(C(F)(F)F)c1[S@@+](C)[O-] [Compound 547]											40%	80%	Results of comparison experiment, Digitaria sanguinalis (30 g/ha) (Digitaria sanguinalis [4]): 90%
Cc1nnc(NC(=O)c2ccc(C(F)(F)F)c([S@+]([O-])CCCCl)c2F)o1 [Compound 37]	0 (Level 0: growth control rate is less than 5%)	5 (Level 5: growth control rate is above 85%)	5 (Level 5: growth control rate is above 85%)	5 (Level 5: growth control rate is above 85%)	5 (Level 5: growth control rate is above 85%)	5 (Level 5: growth control rate is above 85%)	5 (Level 5: growth control rate is above 85%)	5 (Level 5: growth control rate is above 85%)	5 (Level 5: growth control rate is above 85%)	5 (Level 5: growth control rate is above 85%)			
